Measurements published in patent publication US20090047742A1 (priority 2005, published 2009).

Tests used:
iBMK cells [1] = experiment: MTT assay, viability of iBMK cells; format: cell-based, mouse; conditions: for sensitivity to TNF-α-induced cell death (MTT assay): TNF-α/CHX (0.05 μg/ml)
Experimental: 3-(4,5-dimethylthiazol-2-yl)-2,5-diphenyltetrazolium bromide (MTT) assay to measure the viability of iBMK cells treated with paclitaxel, CHX, or both mouse TNF-α and CHX was performed as previously described (Ioffe, M. L., et al., Prostate 61: 243-247. (2004)).
To test if apoptosis mediated by general translation inhibition was dependent on specific BH3-only proteins, the apoptotic response of puma^−/−, bim^−/−, noxa^−/−, nbk/bik^−/− iBMK cells to translation inhibition was tested with CHX. In addition to W2, D3, X2 or K1 cells, puma^−/−, bim^−/−, noxa^−/− or nbk/bik^−/− cells were treated with increasing concentration of CHX (0.05, 0.5, 1.0, 5.0 and 10.0 μg/ml) for 24 hours to induce translation inhibition and viability was assessed. […] In contrast, when D3, K1 (FIG. 6B) and nbk/bik^−/− (FIG. 6C) cells were treated with CHX, cell viability remained high. […] In contrast, D3 cells were resistant to cell death induced by TNF-α and paclitaxel (FIGS. 6D and E). […] Furthermore, NBK/BIK was not required for TNF-α-mediated apoptosis (FIG. 6D) which signals through tBID (Li, H., et al., Cell 94: 491-501 (1998); Luo, X., et al., Cell 94: 481-490 (1998)), nor was NBK/BIK required for apoptosis induced by taxanes (FIG. 6E) which is dependent on BIM (Bouillet, P., et al., Science 286: 1735-1738 (1999); Tan, T. T., et al., Cancer Cell 7: 227-238. (2005)). These findings support the role for specific BH3-only proteins controlling the response to discrete apoptotic stimuli.

caspase-3, PARP = experiment: Western blot of active caspase-3 and PARP in T-Rex-293 lysates; format: cell-based, human
Experimental: Western blot analysis and immunofluorescence were performed as previously described (Perez, D., and White, E. J. Cell Biol. 141: 1255-1266 (1998); Perez, D., and White, E. Mol. Cell 6: 53-63 (2000)). The term “Western blot” refers to a method for identifying proteins in a complex mixture; proteins are separated electrophoretically in a gel medium; transferred from the gel to a protein binding sheet or membrane; and the sheet or membrane containing the separated proteins exposed to specific antibodies which bind to, locate, and enable visualization of protein(s) of interest. T-Rex-293 (mazF/pcDNA3) and T-Rex-293 (mazF/mazE) cells were harvested at 0, 24, 48 and 72 hr post-treatment with tetracycline or staurosporine by scraping and centrifugation. All cell pellets were lysed in 2× Laemmli buffer. Cell lysates were subjected to electrophoresis on a 15% SDS-PAGE gel and then transferred onto an Immobilon-P membrane (Millipore, Bedford, Mass.). The blot was incubated with following antibody: anti-active caspase-3 rabbit polyclonal antibody (Cell Signaling Technology, Beverly, Mass.), anti-BAX, anti-BAK rabbit polyclonal antibody (NT) (Upstate Biotechnology Inc., Lake Placid, N.Y.), anti-BID goat polyclonal antibody (R&D Systems, Inc, Minneapolis, Minn.), anti-Bim rabbit polyclonal antibody (Alexis Biochemical, San Diego, Calif.), anti-BCL-2 hamster monoclonal antibody (PharMingen, San Diego, Calif.), anti-BCL-XL mouse monoclonal antibody (Trevigen, Gaithersburg, Md.), anti-MCL-1 rabbit polyclonal antibody (Stressgen Biotechnologies, Victoria, British Columbia, Canada), anti-PARP mouse monoclonal antibody (PharMingen, San Diego, Calif.), anti-PUMA rabbit polyclonal antibody (Nelson, D. A., et al., Genes Dev. 18: 2095-2107 (2004)), anti-E1A monoclonal antibody; anti-actin monoclonal antibody (Oncogene Research Products); and anti-Xpress monoclonal antibody (Invitrogen). An antibody directed to human NBK/BIK was generated by expression of a GST-tagged human NBK/BIK fusion protein encoding an N-terminal 78-amino acid region in bacteria and immunization of rabbits (Cocalico). Western Blots were developed with horseradish peroxidase-conjugated secondary antibodies using the ECL system (Amersham-Pharmacia Biotech, Piscataway, N.J.).

iBMK cells [2] = conditions: cited from earlier work
[3] = test system: human GAPDH and β-actin mRNA; experiment: Northern blot analysis of cellular mRNA in T-Rex-293 cells; format: cell-based; conditions: co-expression of MazE with MazF, T-Rex-293 (mazF/mazE), throughout time course of induction
Experimental: Northern blot analysis and real-time PCR (RT-PCR) was preformed as previously described (Zhang, Y., et al., Mol. Cell 12: 913-923 (2003); Cuconati, A., et al., Genes Dev. 17: 2922-2932 (2003)). Total RNA from tetracycline-treated (0, 24, 48 and 72 hr) or untreated (0, 24, 48 and 72 hr) T-Rex-293 (mazF/pcDNA3) and T-Rex-293 (mazF/mazE) cells for were isolated through the use of Trizol Reagent (Gibco, Carlsbad, Calif.). For Northern blot analysis, 10 μg of total RNA from each condition was subjected to formaldehyde-agarose gel electrophoresis followed by transfer onto GeneScreen Plus membrane (NEN Life Science Products, Boston, Mass.). The blot was hybridized with ^32P-labeled human GAPDH or β-actin cDNA. One hundred ng of total RNA was subjected to real time RT-PCR with the Taqman EZ-RT PCR kit (PE Applied Biosystems, Lincoln Centre Drive Foster City, Calif.) using recommended conditions provided by the vendor. Primers to analyze the level of human GAPDH mRNA were obtained from Applied Biosystems, and a probe for GAPDH was supplied with 5′ linkage to the reporter dye 2, 7-dimethoxy-4, 5-dichloro-6-carboxy-fluoroecein (JOE), and 3′ linkage to the quencher 6-carboxy-tetramethylrhodamine (TAMURA). β-actin primer sequences were 5′-[…]-3′ and 5′-[…]-3′. β-actin probe sequence was FAM-5′-[…] TTCC-3′-TAMURA. Reactions were carried out in triplicate and the relative amount of human GAPDH and β-actin mRNA was calculated from the difference in fluorescence signal in the 24-, 48- and 72-hr samples compared with the corresponding 0 hr sample.
To assess cellular mRNA levels, total RNA was isolated from whole cells of Tet-treated or -untreated T-Rex-293 cells and subjected to Northern blot analysis using human GAPDH and β-actin cDNA probes. […] Labeled single-stranded DNA fragments complementary to the specific mRNA being sought then are hybridized to the bound mRNA and the label detected by suitable means. […]

[4] = test system: human GAPDH and β-actin mRNA; experiment: real-time RT-PCR quantification of mRNA levels in T-Rex-293 cells; format: cell-based; conditions: cells expressing both MazE and MazF
Experimental: Northern blot analysis and real-time PCR (RT-PCR) was preformed as previously described (Zhang, Y., et al., Mol. Cell 12: 913-923 (2003); Cuconati, A., et al., Genes Dev. 17: 2922-2932 (2003)). Total RNA from tetracycline-treated (0, 24, 48 and 72 hr) or untreated (0, 24, 48 and 72 hr) T-Rex-293 (mazF/pcDNA3) and T-Rex-293 (mazF/mazE) cells for were isolated through the use of Trizol Reagent (Gibco, Carlsbad, Calif.). For Northern blot analysis, 10 μg of total RNA from each condition was subjected to formaldehyde-agarose gel electrophoresis followed by transfer onto GeneScreen Plus membrane (NEN Life Science Products, Boston, Mass.). The blot was hybridized with ^32P-labeled human GAPDH or β-actin cDNA. One hundred ng of total RNA was subjected to real time RT-PCR with the Taqman EZ-RT PCR kit (PE Applied Biosystems, Lincoln Centre Drive Foster City, Calif.) using recommended conditions provided by the vendor. […] Reactions were carried out in triplicate and the relative amount of human GAPDH and β-actin mRNA was calculated from the difference in fluorescence signal in the 24-, 48- and 72-hr samples compared with the corresponding 0 hr sample.

T-Rex-293 cells [5] = experiment: 35S-methionine metabolic labeling (protein synthesis); format: cell-based, human; conditions: T-Rex-293 (mazF/mazE), Tet-treated
Experimental: T-Rex-293 (mazF/pcDNA3) and T-Rex-293 (mazF/mazE) cells were incubated for 0, 24 and 48 hr in tetracycline-containing complete DMEM followed by incubation for 1 hr in fresh methionine-free DMEM containing 10 μCi/ml ^35S-methionine. The cells then were washed with PBS twice and lysed in 2× Laemmli buffer. The cell lysate was subjected to SDS-PAGE followed by autoradiography and coomassie blue stain. Signal intensity was measured by Phosphoimager STORM 860 (Molecular Dynamics, Sunnyvale, Calif.).

T-Rex-293 cells [6] = experiment: phase contrast morphology / cytopathic effect; format: cell-based, human; conditions: MazE co-expressed with MazF, T-Rex-293
T-Rex-293 cells [7] = experiment: trypan blue exclusion viability; format: cell-based, human; conditions: T-Rex-293 (mazF/mazE), Tet-treated
Experimental: The viability of T-Rex-293 cells was determined by trypan blue exclusion as previously described (Degenhardt, K., et al., J. Biol. Chem. 277: 14127-14134 (2002)). T-Rex-293 (mazF/pcDNA3) and T-Rex-293 (mazF/mazE) cells were cultured for 24 hr before tetracycline treatment and then incubated for 0, 24, 48 and 72 hr at 37° C. in the presence or absence of 10 μg/ml tetracycline. After treatment, cells were collected by centrifugation of the supernatant plus adherent cells, which were harvested by trypsinization. Cells were resuspended in 500 μl of fresh medium containing 0.1% trypan blue solution (Sigma, St. Louis, Mo.) and then counted on a hemocytometer to assess the number of dead blue cells and the total number of cells counted. As a control for apoptotic cell death, T-Rex-293 (mazF/mazE) cells were treated with 1 μM staurosporine (Sigma, St. Louis, Mo.) for same time periods concurrently with tetracycline treatment.

T-Rex-293 cells [8] = experiment: FACS analysis of propidium iodide labeling (sub-G1 peak); format: cell-based, human; conditions: T-Rex-293 (mazF/mazE), MazE co-expressed with MazF, 72 hours of induction
Experimental: T-Rex-293 (mazF/pcDNA3) cells and T-Rex-293 (mazF/mazE) cells treated with tetracycline for 0, 24, 48 and 72 hr were harvested by trypsinization, pelleted by centrifugation and resuspended in PBS. The cells were fixed with ice-cold 70% ethanol for 30 min and stained with propidium iodide (10 μg/ml) and RNase A (100 μg/ml) overnight. The cells were analyzed on a Becton Dickinson FACSCalibur system (San Jose, Calif.).

iBMK cells [9] = experiment: β-galactosidase assay, viability of iBMK cells co-expressing LacZ; format: cell-based, mouse; conditions: MazE transiently co-expressed with MazF in W2 and X2 cells
Experimental: β-galactosidase assays to determine the viability of iBMK cells co-expressing LacZ and MazF were performed as previously described (Han, J., Sabbatini, P., and White, E. Mol. Cell. Biol. 16: 5857-5864 (1996)). W2, D3, X2 and K1 co-transfected with pcDNA6/His/LacZ and pcDNA4/TO/mazF or pcDNA3 for 48 hr were fixed in 1% glutaraldehyde and then stained with 0.2% X-gal solution at 37° C. for 24 hr. β-Galactosidase positive blue cells and the total number of cells (approximately 200 cells) were independently counted on a 6-cm diameter dish.

[10] = W2 and three independent nbk/bik−/− iBMK cell lines

C[C@@H]1C[C@@H]([C@H](O)CC2CC(=O)NC(=O)C2)C(=O)[C@@H](C)C1 [CHX, cycloheximide]
cell viability (MTT assay) (iBMK cells [1]; D3, K1 and nbk/bik−/− cells, CHX 0.05-10.0 μg/ml for 24 hours): remained high
survival (MTT assay) (iBMK cells [1]; W2, X2, puma−/−, bim−/− and noxa−/− cells, CHX 0.05-10.0 μg/ml for 24 hours): decreased in a dose-dependent manner

CC(=O)O[C@H]1C(=O)[C@@]2(C)[C@H]([C@H](OC(=O)c3ccccc3)[C@]3(O)C[C@H](OC(=O)[C@H](O)[C@@H](NC(=O)c4ccccc4)c4ccccc4)C(C)=C1C3(C)C)[C@]1(OC(C)=O)CO[C@@H]1C[C@@H]2O [paclitaxel]
sensitivity to paclitaxel-induced cell death (MTT assay) (iBMK cells [1]; D3 cells): resistant
sensitivity to paclitaxel-induced cell death (MTT assay) (iBMK cells [1]; [10]): clearly sensitive

CN[C@@H]1C[C@H]2O[C@@](C)([C@@H]1OC)n1c3ccccc3c3c4c(c5c6ccccc6n2c5c31)C(=O)NC4 [staurosporine, reference compound]
active caspase-3 (Western blot) (caspase-3, PARP; extracts from T-Rex-293 (mazF/mazE) cells treated with 1 μM staurosporine): detected

TNF-α
sensitivity to TNF-α-induced cell death (MTT assay) (iBMK cells [1]; D3 cells): resistant
sensitivity to TNF-α-induced cell death (MTT assay) (iBMK cells [1]; [10]): clearly sensitive
TNF-α-induced apoptosis (iBMK cells [2]; D3 iBMK cells): resistant
apoptosis induction (iBMK cells [2]; W2, X2, and K1 iBMK cells): induces apoptosis

B1: MazE: labile E. coli antitoxin that antagonizes the endoribonuclease activity of MazF; expressed from pcDNA3/mazE together with MazF (protein, UniProt P0AE72 1-82, looked up)
Antitoxin MazE: MIHSSVKRWGNSPAVRIPATLMQALNLNIDDEVKIDLVDGKLIIEPVRKEPVFTLAELVNDITPENLHENIDWGEPKDKEVW
levels of both GAPDH and β-actin mRNAs (Northern blot) [3]: maintained
levels of both GAPDH and β-actin mRNAs (real-time RT-PCR) [4]: constant levels
effect of MazE co-expression on MazF inhibition of protein synthesis (35S-methionine incorporation) (T-Rex-293 cells [5]): clearly prevented the inhibitory effect of MazF
cell number and morphology (T-Rex-293 cells [6]): maintained
effect of co-expression of MazE with MazF on viability (trypan blue exclusion) (T-Rex-293 cells [7]): conferred resistance to MazF-mediated killing
sub-G1 peak (T-Rex-293 cells [8]): 11.4%
activation of caspase-3 (Western blot) (caspase-3, PARP; co-expression of MazE with MazF, Tet-treated T-Rex-293 (mazF/mazE)): inhibited
cleaved PARP (Western blot) (caspase-3, PARP; extracts of cells expressing both MazE and MazF): not present
effect of MazE on MazF-induced cell death (β-galactosidase assay) (iBMK cells [9]): significantly repressed MazF-induced cell death
